The test system of test [1] is S. obliqnus. In words: Algicidal activity (growth inhibition, microplate, absorbance 650 nm) against S. obliqnus. The test is classed as cell-based. Particulars: for IC50: 96 h, read-out: IC50 value S. obliqnus. The method, then:
(§1) According to the method established by Schrader et al.[42], algicidal activity of alkaloid (1) and its amide analogues (7–32), as well as their hydrochloric salts (7S–27S), was evaluated against three typical […] algae, S. obliqnus, M. aeruginosa, and C. Pyrenoidosa at different concentrations. After three algae species were inoculated, the variation of algae density over 7 days were recorded continuously. […] The wavelength at 650 nm was determined as ideal incident wavelength for the measurement of algae density. Three […] algae S. obliqnus, M. aeruginosa, and C. pyrenoidosa were offered by Freshwater algae culture collection of the institute of Hydrobiology (FACHB-collection). Each culture for three species was maintained separately in continuous, steady-state growth microplates, which were placed in a growth chamber held at 28 ± 1 °C and illuminated continuously under fluorescent lights at a photon flux density of […]. Absorbance values of each wells were measured by a Packard model Spectra Count microplate photometer.
(§2) Alkaloid (1) and its analogues (7–32), as well as their hydrochloric salts (7S–27S), were dissolved separately in DMSO to provide stock solution concentrations. Initially, each stock solution was aseptically pipetted into the bottom of separate wells (20 μL per well) in a 96-well microplate and the final test concentrations for each sample were 0, 0.78, 1.56, 3.12, 6.25, 12.5, and 25 μg/mL. Wells of control samples contained only unialgal culture. The solution of CuSO4 and Diuron at the same concentration were chose as the reference sample. Each experiment was performed at least three times. Through measuring the area values under the individual growth curves, the inhibitory rate (%) for the individual tested concentration was calculated according to the following equation (1):1 Ii=(Ac−Ai)/[…]×100% • Ii: inhibitory rate of biomass growth by toxicant concentration i (%) • Ac: average area under the growth curve by control sample • Ai: average area under the growth curve by test concentration i
(§3) Mean values of 96-hour IC50 were determined for each group of plates, and standard deviation were calculated and reported as the mean ± SD.
(§4) The IC50 values of all compounds against three freshwater algae species were calculated using SPSS v19.0, and the algicidal activities of alkaloid (1) and its amide analogues (7–32), as well as the corresponding hydrochloric salts (7S–27S) are listed in Table 1 and 2, respectively.

Test [2] deals with M. aeruginosa. Briefly: Algicidal activity (growth inhibition, microplate, absorbance 650 nm) against M. aeruginosa. The format is cell-based. Particulars: for IC50: Microcystis aeruginosa, read-out: IC50 value M. aeruginosa. On the procedure: as §1, §2, §3, §4
Currently, M. aeruginosa appears to be the most harmful algae existing in the freshwater bodies in the developing countries. To investigate growth inhibitory potential of this class of thiazole amides on M. aeruginosa, thiazole amide (10) and its hydrochloric acid salt (10S) were subject to further survey for the optimal inhibition time and concentration (Figs 3 and 4). […] The variation of growth inhibitory ratios of compounds (10) and (10S) against M. aeruginosa at the lowest complete inhibition concentration is illustrated in Fig. 4. As observed, for administration of thiazole amide (10), the growth inhibitory ratios after 96 and 120 hours increase gradually to 79% and 92%, respectively. Under the same experimental conditions, growth inhibitory ratios for the salt (10S) are 82% and 88%, respectively.

For test [3], the system named is C. pyrenoidosa. Briefly: Algicidal activity (growth inhibition, microplate, absorbance 650 nm) against C. pyrenoidosa. The format is cell-based, Chlorella pyrenoidosa. Particulars: for IC50: Auxenochlorella pyrenoidosa, read-out: IC50 value C. pyrenoidosa. The method, then: as §1, §2, §3, §4

The results in this text go back to paper PMC5986738, “Thiazole Amides, A Novel Class of Algaecides against Freshwater Harmful Algae” (Scientific Reports, 2018).

The structures appear in SMILES notation. ≈ marks a conversion by molar mass, not a printed value. Read-outs that look alike come from different tables or passages of the source.

On to `Cc1cc(NC(=O)c2csc([C@H](C)N)n2)ccc1F.Cl` [25S], for which the “IC50 value S. obliqnus” value in test [1] (96-hour IC50, mean ± SD) is 16.62 ± 1.48 µg/mL. The “IC50 value M. aeruginosa” value in test [2] (96-hour IC50, mean ± SD) amounted to 1.79 ± 0.22 µg/mL. In addition, in test [3] (96-hour IC50, mean ± SD), the “IC50 value C. pyrenoidosa” value worked out at 1.59 ± 0.19 µg/mL.
For `CCOC(=O)c1ccc(NC(=O)c2csc([C@H](C)N)n2)cc1.Cl` [26S] the same measures were 10.60 ± 1.18 µg/mL, 2.46 ± 0.23 µg/mL and 2.38 ± 0.32 µg/mL.
For the molecule `O=S(=O)([O-])[O-].[Cu+2]` [CuSO4, reference compound], the “IC50 value S. obliqnus” value in test [1] (96-hour IC50, mean ± SD) stood at 0.99 ± 0.06 µg/mL. In addition, in test [2] (96-hour IC50, mean ± SD), the “IC50 value M. aeruginosa” value was 1.29 ± 0.02 µg/mL. For the same molecule, the “IC50 value C. pyrenoidosa” value in test [3] (96-hour IC50, mean ± SD) is 1.56 ± 0.09 µg/mL.
As usually defined, the IC50 is the concentration at which inhibition is half-maximal. In the case of `CN(C)C(=O)Nc1ccc(Cl)c(Cl)c1` [Diuron, reference compound], the IC50 is 0.79 ± 0.08 µg/mL (≈ 3.39 µM) in test [1], 1.35 ± 0.15 µg/mL (≈ 5.79 µM) in test [2] (96 h) and 1.42 ± 0.27 µg/mL (≈ 6.09 µM) in test [3] (96 h).
As to `C[C@H](N)c1nc(C(=O)Nc2ccc(F)cc2)cs1` [compound 8], the concentration for half-maximal inhibition (IC50) amounted to 2.74 ± 0.11 µg/mL (≈ 10.3 µM) in test [1] (96-hour IC50, mean ± SD); 4.51 ± 0.92 µg/mL (≈ 17 µM) in test [2] (96-hour IC50, mean ± SD); 3.57 ± 0.37 µg/mL (≈ 13.5 µM) in test [3] (96-hour IC50, mean ± SD).
For the molecule `C[C@H](N)c1nc(C(=O)Nc2ccc(Cl)cc2)cs1` [compound 9], the half-maximal inhibitory concentration (IC50) in test [1] (96-hour IC50, mean ± SD) was 4.12 ± 0.13 µg/mL (≈ 14.6 µM); in test [2] (96-hour IC50, mean ± SD), 2.19 ± 0.09 µg/mL (≈ 7.77 µM); in test [3] (96-hour IC50, mean ± SD), 1.37 ± 0.12 µg/mL (≈ 4.86 µM).
As for `Cc1ccc(NC(=O)c2csc([C@H](C)N)n2)cc1` [compound 11], the IC50 in test [1] (96-hour IC50, mean ± SD) was found to be 2.66 ± 0.18 µg/mL (≈ 10.2 µM); in test [2] (96-hour IC50, mean ± SD) it was 6.16 ± 1.13 µg/mL (≈ 23.6 µM); in test [3] (96-hour IC50, mean ± SD), 10.4 ± 1.12 µg/mL (≈ 39.8 µM).
For `C[C@H](N)c1nc(C(=O)Nc2ccc(C(F)(F)F)cc2)cs1` [compound 13], the half-maximal inhibitory concentration (IC50) came to 4.35 ± 0.17 µg/mL (≈ 13.8 µM) in test [1] (96-hour IC50, mean ± SD); 2.36 ± 0.12 µg/mL (≈ 7.48 µM) in test [2] (96-hour IC50, mean ± SD); 4.58 ± 0.23 µg/mL (≈ 14.5 µM) in test [3] (96-hour IC50, mean ± SD).
Regarding `CC(N)c1nc(C(=O)Nc2cccc(Br)c2)cs1` (stereo not drawn) [compound 15], the “IC50 value M. aeruginosa” value in test [2] (96-hour IC50, mean ± SD) stood at 4.79 ± 0.15 µg/mL (≈ 14.7 µM). Besides, the “IC50 value C. pyrenoidosa” value in test [3] (96-hour IC50, mean ± SD) is 5.77 ± 0.11 µg/mL (≈ 17.7 µM).
For the molecule `C[C@H](N)c1nc(C(=O)Nc2cccc(C(F)(F)F)c2)cs1` [compound 17], the half-inhibitory concentration (IC50) was determined as 9.21 ± 1.12 µg/mL (≈ 29.2 µM) in test [1] (96-hour IC50, mean ± SD); 12.2 ± 2.13 µg/mL (≈ 38.7 µM) in test [2] (96-hour IC50, mean ± SD); 10.4 ± 0.99 µg/mL (≈ 33.1 µM) in test [3] (96-hour IC50, mean ± SD).
For `C[C@H](N)c1nc(C(=O)Nc2ccccc2F)cs1` [compound 18] the same measures were 3.95 ± 0.92 µg/mL (≈ 14.9 µM), 2.55 ± 0.19 µg/mL (≈ 9.61 µM) and 3.41 ± 0.14 µg/mL (≈ 12.9 µM).
Regarding `C[C@H](N)c1nc(C(=O)Nc2ccccc2Cl)cs1` [compound 19], the IC50 turned out to be 12.2 ± 1.16 µg/mL (≈ 43.4 µM) in test [2] (96-hour IC50, mean ± SD) and 8.16 ± 1.34 µg/mL (≈ 29 µM) in test [3] (96-hour IC50, mean ± SD).
Take `C[C@H](N)c1nc(C(=O)Nc2ccccc2Br)cs1` [compound 20]: the IC50 in test [1] (96-hour IC50, mean ± SD) worked out at 3.31 ± 0.13 µg/mL (≈ 10.1 µM); in test [2] (96-hour IC50, mean ± SD), 8.79 ± 1.23 µg/mL (≈ 26.9 µM); in test [3] (96-hour IC50, mean ± SD) it was 2.84 ± 0.93 µg/mL (≈ 8.71 µM).
On to `Cc1ccccc1NC(=O)c1csc([C@H](C)N)n1` [compound 21], for which the concentration for half-maximal inhibition (IC50) in test [2] (96-hour IC50, mean ± SD) was 10.1 ± 1.71 µg/mL (≈ 38.5 µM); in test [3] (96-hour IC50, mean ± SD) it was 26.1 ± 3.25 µg/mL (≈ 99.8 µM).
As to `C[C@H](N)c1nc(C(=O)Nc2ccc(OC(F)(F)F)cc2)cs1` [compound 23], the IC50 in test [1] (96-hour IC50, mean ± SD) was 5.93 ± 0.11 µg/mL (≈ 17.9 µM); in test [2] (96-hour IC50, mean ± SD), 7.2 ± 0.71 µg/mL (≈ 21.7 µM); in test [3] (96-hour IC50, mean ± SD), 3.8 ± 0.16 µg/mL (≈ 11.5 µM).
In the case of `C[C@H](N)c1nc(C(=O)Nc2ccc(Cl)c(Cl)c2)cs1` [compound 24], the IC50 in test [1] (96-hour IC50, mean ± SD) amounted to 4.31 ± 0.21 µg/mL (≈ 13.6 µM); in test [2] (96-hour IC50, mean ± SD), 9.81 ± 1.13 µg/mL (≈ 31 µM); in test [3] (96-hour IC50, mean ± SD) it was 5.11 ± 1.01 µg/mL (≈ 16.2 µM).
On the same counts, the results for `Cc1cc(NC(=O)c2csc([C@H](C)N)n2)ccc1F` [compound 25] are 1.81 ± 0.07 µg/mL (≈ 6.48 µM), 6.73 ± 1.21 µg/mL (≈ 24.1 µM) and 5.1 ± 0.13 µg/mL (≈ 18.3 µM).
On the same counts, the results for `CCOC(=O)c1ccc(NC(=O)c2csc([C@H](C)N)n2)cc1` [compound 26] are 29.5 ± 1.56 µg/mL (≈ 92.5 µM), 3.29 ± 0.21 µg/mL (≈ 10.3 µM) and 4.16 ± 0.56 µg/mL (≈ 13 µM).
